Data reported in ChEMBL document CHEMBL1201862, “PubChem BioAssay data set” (2004).
Where a name gives a salt, the structure may show the parent alone. Active and inactive are the calls of the source.

Key:
[1] = biological target: T1, G-protein coupled receptor 55 (Homo sapiens, UniProt Q9Y2T6); experiment: SAR Analysis of Selective Antagonists of GPR55 using an Image-Based Assay - Set 3. [Related pubchem assays (depositor defined):AID2058, AID2079]; assay type: functional
[2] = biological target: G-protein coupled receptor 35 (Homo sapiens, UniProt Q9HC97); experiment: SAR analysis of Antagonists of the GPR35 Receptor using an Image-Based Assay - Set 5. [Related pubchem assays (depositor defined):AID2058, AID2079]; assay type: functional
G-protein coupled receptor 35, sequence (Q9HC97 whole entry): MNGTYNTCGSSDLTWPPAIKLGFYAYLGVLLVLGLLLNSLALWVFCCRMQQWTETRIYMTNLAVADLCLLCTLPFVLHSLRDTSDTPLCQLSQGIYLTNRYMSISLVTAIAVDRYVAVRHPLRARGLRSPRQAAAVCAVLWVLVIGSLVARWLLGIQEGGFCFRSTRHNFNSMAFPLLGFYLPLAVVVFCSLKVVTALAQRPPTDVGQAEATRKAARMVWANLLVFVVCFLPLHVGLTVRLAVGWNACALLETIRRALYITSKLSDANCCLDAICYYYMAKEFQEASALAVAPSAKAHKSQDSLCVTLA

[3] = test system: Trypanosoma cruzi; experiment: growth inhibition of intracellular Trypanosoma cruzi, dose response, cell-based, plate reader, dry powder, set 3 (AID 493197); assay type: functional
[4] = cytotoxicity in NIH/3T3 mouse fibroblasts, dose response, cytotoxicity control, cell-based, mouse embryonic fibroblasts, dry powder, set 2 (AID 493247); assay type: functional; conditions: Fibroblast
[5] = biological target: T2, Small ubiquitin-related modifier 1 (Homo sapiens, UniProt P63165); experiment: inhibitors of SUMO1 partner interactions, dose response, biochemical, FRET (AID 624383); assay type: functional; conditions: read-out: IC50_Mean
T2 sequence (P63165 whole entry): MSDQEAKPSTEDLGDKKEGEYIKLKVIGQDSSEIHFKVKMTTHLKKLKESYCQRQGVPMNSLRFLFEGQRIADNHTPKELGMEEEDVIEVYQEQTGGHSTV

[6] = Luminescence Cell Based Dose Confirmation HTS to Identify Activators of 5'UTR Stem-Loop Driven Alpha-Synuclein mRNA Translation in H4 Neuroglioblastoma Cells. [Related pubchem assays (depositor defined):AID1813, AID1829]; assay type: functional; conditions: Homo sapiens
[7] = biological target: T2, Small ubiquitin-related modifier 1; experiment: inhibitors of SUMO1 peptide binding, dose response, biochemical, fluorescence polarization, uHTS hits (AID 624382); assay type: functional; conditions: read-out: IC50_Mean
[8] = biological target: Cytochrome P450 2D6 (Homo sapiens, UniProt P10635);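 further: CYP2D6 member of a cytochrome P450 panel assay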
Cytochrome P450 2D6, sequence (P10635 whole entry, the tested form may be a part): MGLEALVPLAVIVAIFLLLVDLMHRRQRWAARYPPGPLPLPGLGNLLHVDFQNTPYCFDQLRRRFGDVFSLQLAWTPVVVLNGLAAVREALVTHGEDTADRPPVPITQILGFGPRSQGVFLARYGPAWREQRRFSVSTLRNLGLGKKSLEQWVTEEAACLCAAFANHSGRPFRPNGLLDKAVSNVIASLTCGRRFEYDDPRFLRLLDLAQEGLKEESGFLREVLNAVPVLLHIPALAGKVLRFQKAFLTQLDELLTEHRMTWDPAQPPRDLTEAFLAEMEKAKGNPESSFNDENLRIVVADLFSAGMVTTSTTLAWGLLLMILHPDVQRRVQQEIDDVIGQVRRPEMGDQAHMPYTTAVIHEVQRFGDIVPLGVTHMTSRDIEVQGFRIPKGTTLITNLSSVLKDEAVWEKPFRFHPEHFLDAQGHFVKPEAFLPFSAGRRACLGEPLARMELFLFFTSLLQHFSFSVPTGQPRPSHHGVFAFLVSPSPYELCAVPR

[9] = biological target: Perilipin-1/ABHD5 (Homo sapiens, UniProt O60240+Q8WTS1); experiment: Luminescence-based biochemical high throughput dose response assay for inhibitors of the interaction of the lipase co-activator protein, abhydrolase domain containing 5 (ABHD5) with perilipin-1 (PLIN1) (2K validation set). [Related pubchem assays (depositor defined):AID493027, AID493057]
Perilipin-1/ABHD5, sequence (Q8WTS1 whole entry, the tested form may be a part): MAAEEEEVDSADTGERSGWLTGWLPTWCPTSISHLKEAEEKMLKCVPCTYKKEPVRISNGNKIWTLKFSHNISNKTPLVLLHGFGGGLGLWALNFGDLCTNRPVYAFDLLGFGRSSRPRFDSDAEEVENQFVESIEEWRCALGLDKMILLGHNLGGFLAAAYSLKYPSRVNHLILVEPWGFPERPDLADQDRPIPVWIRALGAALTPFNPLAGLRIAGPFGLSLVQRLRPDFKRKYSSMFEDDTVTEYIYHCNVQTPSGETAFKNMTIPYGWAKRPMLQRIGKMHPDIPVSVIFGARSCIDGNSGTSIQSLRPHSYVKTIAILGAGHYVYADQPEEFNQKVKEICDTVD
Perilipin-1/ABHD5, sequence (O60240 whole entry, the tested form may be a part): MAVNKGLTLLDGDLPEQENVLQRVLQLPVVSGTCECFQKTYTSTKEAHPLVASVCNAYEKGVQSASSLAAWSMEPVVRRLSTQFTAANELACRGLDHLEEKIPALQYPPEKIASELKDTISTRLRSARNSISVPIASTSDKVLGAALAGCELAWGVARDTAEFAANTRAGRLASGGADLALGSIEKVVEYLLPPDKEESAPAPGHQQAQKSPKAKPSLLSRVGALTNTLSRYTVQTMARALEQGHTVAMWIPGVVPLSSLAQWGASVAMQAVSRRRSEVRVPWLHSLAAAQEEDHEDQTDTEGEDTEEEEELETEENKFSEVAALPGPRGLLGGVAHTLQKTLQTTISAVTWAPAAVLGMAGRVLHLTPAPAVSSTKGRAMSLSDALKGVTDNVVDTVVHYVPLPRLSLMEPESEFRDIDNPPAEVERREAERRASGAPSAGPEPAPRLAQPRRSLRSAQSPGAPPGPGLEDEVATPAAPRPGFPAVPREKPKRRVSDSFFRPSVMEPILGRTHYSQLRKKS

[10] = biological target: 1-acylglycerol-3-phosphate O-acyltransferase ABHD5/Perilipin-5 (Homo sapiens, UniProt Q00G26+Q8WTS1); experiment: Luminescence-based biochemical high throughput dose response assay for inhibitors of the interaction of the lipase co-activator protein, abhydrolase domain containing 5 (ABHD5) with perilipin-5 (MLDP; PLIN5) (2K validation set). [Related pubchem assays (depositor defined):AID493035, AID493241]
1-acylglycerol-3-phosphate O-acyltransferase ABHD5/Perilipin-5, sequence (Q00G26 whole entry, the tested form may be a part): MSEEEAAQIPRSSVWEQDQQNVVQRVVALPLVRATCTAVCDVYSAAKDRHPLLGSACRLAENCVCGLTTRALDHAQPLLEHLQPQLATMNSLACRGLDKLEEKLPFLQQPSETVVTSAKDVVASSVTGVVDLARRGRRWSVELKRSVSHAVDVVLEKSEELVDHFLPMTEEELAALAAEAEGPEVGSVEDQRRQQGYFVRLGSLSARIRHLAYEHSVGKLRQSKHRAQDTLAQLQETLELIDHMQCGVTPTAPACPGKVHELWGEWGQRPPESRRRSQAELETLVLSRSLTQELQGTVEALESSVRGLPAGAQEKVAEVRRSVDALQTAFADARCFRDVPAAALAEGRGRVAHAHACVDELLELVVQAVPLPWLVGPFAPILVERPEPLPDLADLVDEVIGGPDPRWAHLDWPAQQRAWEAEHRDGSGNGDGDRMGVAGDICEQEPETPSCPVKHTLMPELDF
1-acylglycerol-3-phosphate O-acyltransferase ABHD5/Perilipin-5, sequence (Q8WTS1 whole entry, the tested form may be a part): as the sequence (Q8WTS1 whole entry, the tested form may be a part) above

[11] = biological target: T3, Mannose-6-phosphate isomerase (Homo sapiens, UniProt P34949); experiment: human PMI inhibitors, high substrate, primary screen, biochemical, fluorescence intensity, high mannose 6-phosphate (AID 1220)
T3 sequence (P34949 whole entry): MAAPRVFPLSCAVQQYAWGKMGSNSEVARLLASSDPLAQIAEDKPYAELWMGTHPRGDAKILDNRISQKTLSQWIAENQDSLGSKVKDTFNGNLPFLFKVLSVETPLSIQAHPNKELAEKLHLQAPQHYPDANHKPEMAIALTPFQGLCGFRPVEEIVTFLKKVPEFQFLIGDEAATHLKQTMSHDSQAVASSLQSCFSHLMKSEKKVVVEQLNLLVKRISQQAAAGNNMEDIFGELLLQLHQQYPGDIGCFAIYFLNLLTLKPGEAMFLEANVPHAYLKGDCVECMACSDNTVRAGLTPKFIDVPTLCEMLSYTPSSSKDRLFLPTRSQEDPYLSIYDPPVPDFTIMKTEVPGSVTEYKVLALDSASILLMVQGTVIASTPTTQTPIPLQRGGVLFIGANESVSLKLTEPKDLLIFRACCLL

[12] = biological target: Cytochrome P450 2C9 (Homo sapiens, UniProt P11712)
Cytochrome P450 2C9, sequence (P11712 whole entry): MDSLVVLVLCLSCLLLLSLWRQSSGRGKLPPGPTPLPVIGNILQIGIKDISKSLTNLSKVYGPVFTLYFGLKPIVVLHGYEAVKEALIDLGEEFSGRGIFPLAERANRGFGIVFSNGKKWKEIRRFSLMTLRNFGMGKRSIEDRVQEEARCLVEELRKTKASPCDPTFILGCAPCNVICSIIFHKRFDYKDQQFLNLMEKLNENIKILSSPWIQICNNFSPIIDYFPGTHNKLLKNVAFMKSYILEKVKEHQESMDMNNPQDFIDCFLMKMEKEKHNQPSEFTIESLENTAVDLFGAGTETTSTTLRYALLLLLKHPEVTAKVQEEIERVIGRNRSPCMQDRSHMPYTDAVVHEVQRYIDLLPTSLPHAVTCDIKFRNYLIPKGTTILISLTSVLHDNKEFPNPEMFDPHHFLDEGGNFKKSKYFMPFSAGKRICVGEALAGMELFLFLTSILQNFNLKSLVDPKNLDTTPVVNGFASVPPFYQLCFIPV

[13] = test system: INS1; experiment: beta cell apoptosis inhibitors, cytokine rescue, dose response, luminescence, retest (AID 449756); assay type: functional, cell-based; conditions: Rattus norvegicus;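 further: cell death triggered by IL-1 beta plus TNF-alpha plus IFN-gamma mixture; protective hits raise ATP signal compared with cytokine alone wells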
[14] = test system: Saccharomyces cerevisiae; experiment: NALP1 inhibitor project selectivity study, Caspase-1/ASC signal blockade IC50 in S. cerevisiae (AID 488863); assay type: functional, organism-based
[15] = cytotoxicity toward HT-29 cells – cell-based, CellTiter-Glo luminescence, IC50, dose response (AID 1117330); assay type: functional
[16] = SNU-C1 cell viability reduction, dose response, CellTiter-Glo luminescence (AID 1117323); assay type: functional, cell-based
[17] = inhibitors of intracellular T. cruzi replication, confirmation, NIH3T3 host cells, beta-gal luminescence (AID 2044); assay type: functional, cell-based;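 further: intracellular parasites grown in NIH/3T3 mouse fibroblasts as host cells; luminescent beta-galactosidase reporter signal from transgenic T. cruzi replicating inside host cells; inhibitors lower the luminescence signal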
[18] = cytotoxicity toward Colo320 cells – cell-based, CellTiter-Glo luminescence, IC50, dose response (AID 1117334); assay type: functional; conditions: COLO 320
[19] = cytotoxicity in KRAS-transformed pancreatic duct cells, primary screen, cell-based, fluorescence, HTS (AID 431); assay type: functional; conditions: Homo sapiens;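 further: cell line used: HPDE-C7K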
[20] = cytotoxicity toward NIH3T3 fibroblasts, dose response, counter-screen, cell-based, ATP luminescence, mouse fibroblasts (AID 2010); assay type: functional;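 further: cells exposed to compound for about 90 hours before reading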
[21] = biological target: NACHT, LRR and PYD domains-containing protein 1 (Homo sapiens, UniProt Q9C000); experiment: NALP1 inhibitors in yeast, dose response, luminescent (AID 488860); assay type: functional
NACHT, LRR and PYD domains-containing protein 1, sequence (Q9C000 1-1212 limits assumed): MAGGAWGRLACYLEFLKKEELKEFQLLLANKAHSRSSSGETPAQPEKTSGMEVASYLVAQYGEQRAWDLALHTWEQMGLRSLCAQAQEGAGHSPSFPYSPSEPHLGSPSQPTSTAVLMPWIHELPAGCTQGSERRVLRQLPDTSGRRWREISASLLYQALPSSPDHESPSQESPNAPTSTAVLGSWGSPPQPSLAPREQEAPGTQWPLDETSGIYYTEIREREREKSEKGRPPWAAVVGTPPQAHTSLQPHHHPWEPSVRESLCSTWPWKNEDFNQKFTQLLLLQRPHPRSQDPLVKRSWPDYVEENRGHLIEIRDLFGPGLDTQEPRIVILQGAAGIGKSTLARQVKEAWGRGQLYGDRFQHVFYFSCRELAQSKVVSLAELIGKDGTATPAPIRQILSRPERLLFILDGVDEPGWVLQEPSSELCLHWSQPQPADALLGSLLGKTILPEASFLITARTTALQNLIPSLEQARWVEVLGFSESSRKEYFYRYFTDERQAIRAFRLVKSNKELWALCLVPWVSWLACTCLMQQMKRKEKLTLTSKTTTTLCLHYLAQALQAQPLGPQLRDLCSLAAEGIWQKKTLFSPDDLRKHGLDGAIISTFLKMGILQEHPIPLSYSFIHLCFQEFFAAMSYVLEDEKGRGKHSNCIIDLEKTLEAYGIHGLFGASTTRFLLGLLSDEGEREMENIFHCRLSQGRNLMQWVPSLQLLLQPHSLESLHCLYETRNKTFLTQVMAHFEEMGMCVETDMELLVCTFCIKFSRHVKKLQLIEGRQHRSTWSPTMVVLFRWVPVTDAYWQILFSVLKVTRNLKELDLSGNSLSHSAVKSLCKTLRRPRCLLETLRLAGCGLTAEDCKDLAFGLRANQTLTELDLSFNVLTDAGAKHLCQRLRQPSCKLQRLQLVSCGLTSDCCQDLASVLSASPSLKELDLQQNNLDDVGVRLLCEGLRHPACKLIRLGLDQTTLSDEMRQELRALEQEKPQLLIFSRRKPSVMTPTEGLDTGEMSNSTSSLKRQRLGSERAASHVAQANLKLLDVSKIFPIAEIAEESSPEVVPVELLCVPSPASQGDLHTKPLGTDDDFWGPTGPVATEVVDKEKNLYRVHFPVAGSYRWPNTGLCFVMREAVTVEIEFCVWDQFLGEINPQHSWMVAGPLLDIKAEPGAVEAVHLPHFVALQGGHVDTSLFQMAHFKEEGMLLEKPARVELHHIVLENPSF
NACHT, LRR and PYD domains-containing protein 1, sequence (Q9C000 1213-1473 limits assumed): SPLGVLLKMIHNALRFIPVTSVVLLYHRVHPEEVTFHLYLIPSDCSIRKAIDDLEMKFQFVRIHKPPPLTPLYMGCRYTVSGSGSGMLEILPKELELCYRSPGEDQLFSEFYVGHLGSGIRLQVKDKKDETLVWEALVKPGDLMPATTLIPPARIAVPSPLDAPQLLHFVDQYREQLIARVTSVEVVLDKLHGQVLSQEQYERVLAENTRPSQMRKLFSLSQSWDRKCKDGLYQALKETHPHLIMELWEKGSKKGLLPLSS

[22] = biological target: T1, G-protein coupled receptor 55; experiment: GPR55 antagonists blocking LPI-driven arrestin recruitment, primary screen, imaging, U2OS, beta-arrestin-GFP, LPI agonist (AID 2013); assay type: functional;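 further: antagonist potency measured as reduced agonist-driven arrestin aggregation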
[23] = CellTiter-Glo luminescent dose response of DLD-1 viability loss (AID 1117352); assay type: functional
[24] = cytotoxicity in HPDE-C7 cells, cell-based, fluorescence, HTS (AID 430); assay type: functional; conditions: Homo sapiens
[25] = inhibitors of firefly luciferase expression or activity, dose response, H4 neuroglioma cells, luminescence (AID 1990); assay type: functional, cell-based
[26] = cytotoxicity toward HCT116 cells – cell-based, CellTiter-Glo luminescence, IC50, dose response (AID 1117332); assay type: functional; conditions: HCT-116
[27] = Luminescence Cell-Based Dose Response HTS to Identify Inhibitors of 5'UTR Stem-Loop Driven Prion Protein mRNA Translation in H4 Neuroglioblastoma Cells. [Related pubchem assays: 1827 (Project Summary), 1813 (Primary HTS)]; assay type: functional
[28] = inhibitors of SNCA 5'UTR-driven reporter translation, confirmation, H4 neuroglioma cells, luminescence (AID 1988); assay type: functional, cell-based
[29] = biological target: T4, Ubiquitin-conjugating enzyme E2 N (Homo sapiens, UniProt P61088); assay type: functional;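 further: Dose-response confirmation in a TR-FRET assay detecting UBC13-driven polyubiquitin chain formation, inhibition measured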
T4 sequence (P61088 whole entry): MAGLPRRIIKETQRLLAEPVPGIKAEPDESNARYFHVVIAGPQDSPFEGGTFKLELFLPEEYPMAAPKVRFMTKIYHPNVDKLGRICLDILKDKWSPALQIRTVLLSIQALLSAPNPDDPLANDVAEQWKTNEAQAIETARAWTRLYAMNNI

[30] = biological target: T5, Microphthalmia-associated transcription factor (Homo sapiens, UniProt O75030); experiment: TRPM1 promoter luciferase signal decrease, dose response, MITF inhibitor project, cell-based, SK-MEL-5, cherry-picked, set 3 (AID 493073); assay type: functional
T5 sequence (O75030 whole entry): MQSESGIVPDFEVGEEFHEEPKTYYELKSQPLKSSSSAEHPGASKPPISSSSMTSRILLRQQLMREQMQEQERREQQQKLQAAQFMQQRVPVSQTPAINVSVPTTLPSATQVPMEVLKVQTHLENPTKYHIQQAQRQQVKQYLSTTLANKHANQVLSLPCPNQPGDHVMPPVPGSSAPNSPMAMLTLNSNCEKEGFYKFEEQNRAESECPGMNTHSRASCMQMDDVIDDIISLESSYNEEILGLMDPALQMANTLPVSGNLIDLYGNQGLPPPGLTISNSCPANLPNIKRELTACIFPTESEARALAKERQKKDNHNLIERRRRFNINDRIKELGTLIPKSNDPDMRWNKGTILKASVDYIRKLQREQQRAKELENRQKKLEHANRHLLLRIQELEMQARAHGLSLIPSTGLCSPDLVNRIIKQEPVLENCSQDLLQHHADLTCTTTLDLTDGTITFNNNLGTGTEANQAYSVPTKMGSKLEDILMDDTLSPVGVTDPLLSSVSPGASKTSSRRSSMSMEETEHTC

[31] = Concentration-dependent survival of SW480 colon cancer line, luminescence detection with CellTiter-Glo, half-maximal inhibitory concentration (AID 1117338); assay type: functional
[32] = HCT116 cell viability decrease, GSK3B pretreatment – CellTiter-Glo, IC50, dose response (AID 1117339); assay type: functional; conditions: HCT-116
[33] = RKO cell viability reduction, dose response, CellTiter-Glo luminescence (AID 1117322); assay type: functional

T1 sequence (Q9Y2T6 whole entry): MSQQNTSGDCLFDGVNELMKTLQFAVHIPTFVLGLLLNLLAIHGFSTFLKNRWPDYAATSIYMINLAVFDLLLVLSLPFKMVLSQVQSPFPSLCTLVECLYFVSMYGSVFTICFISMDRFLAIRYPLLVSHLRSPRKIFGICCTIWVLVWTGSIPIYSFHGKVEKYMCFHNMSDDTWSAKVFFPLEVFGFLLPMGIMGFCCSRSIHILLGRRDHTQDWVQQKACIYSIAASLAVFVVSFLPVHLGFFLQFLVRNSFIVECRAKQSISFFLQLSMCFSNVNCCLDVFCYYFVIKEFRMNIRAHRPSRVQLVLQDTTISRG

**Q.** With `COC(=O)c1cnn(-c2ccccc2)c1/C=N/NC(N)=S` as the compound, how does the IC50 [1] read?
**A.** > 32 µM (inactive)

**Q.** And the IC50 [2]?
**A.** > 32 µM (inactive)

**Q.** What does the source list for `CCCNC(=O)C1(C)CCCN(Cc2ccc(Oc3ccccc3)cc2)C1` (stereo not drawn)?
**A.** AC50 [3]: 8.72 µM (active); AC50 [4]: 22.9 µM (active)

**Q.** With `COc1ccc(Cl)cc1Nc1nnc(-c2ccncc2)s1` as the compound, how does the IC50 [5] read?
**A.** 4.83 µM (active)

**Q.** And the EC50 [6]?
**A.** 73.5 µM (active)

**Q.** And the IC50 [7]?
**A.** > 66.6 µM (inactive)

**Q.** What does the source list for `Nc1cc(-c2ccncc2)c[nH]c1=O` [INAMRINONE]?
**A.** AC50 [8]: 12.6 µM (inconclusive); IC50 [9]: > 79.5 µM (inactive); IC50 [10]: 78.8 µM (inactive); IC50 [11]: > 50 µM (not active); AC50 [12]: 12.6 µM (inconclusive)

**Q.** For `C1CCC(C(CC2CCCCN2)C2CCCCC2)CC1` (stereo not drawn) [PERHEXILINE MALEATE], which AC50 [13] is on record?
**A.** 6.42 µM (active)

**Q.** What about the IC50 [14] of the same compound?
**A.** 15.9 µM (active)

**Q.** And the IC50 [15]?
**A.** 6.87 µM (inactive)

**Q.** What about the IC50 [16] of the same compound?
**A.** 2.48 µM (active)

**Q.** And the EC50 [17]?
**A.** 3.13 µM (active)

**Q.** What about the IC50 [18] of the same compound?
**A.** 8.86 µM (inactive)

**Q.** What about the EC50 [19] of the same compound?
**A.** 10.8 µM (active)

**Q.** What about the EC50 [20] of the same compound?
**A.** 14.2 µM (active)

**Q.** What about the IC50 [21] of the same compound?
**A.** 12.9 µM (active)

**Q.** What about the IC50 [22] of the same compound?
**A.** 3.19 µM (active)

**Q.** What about the IC50 [23] of the same compound?
**A.** > 20 µM (inactive)

**Q.** What about the EC50 [24] of the same compound?
**A.** 11.7 µM (active)

**Q.** And the EC50 [25]?
**A.** > 120 µM (not active)

**Q.** What about the IC50 [26] of the same compound?
**A.** > 20 µM (inactive)

**Q.** And the EC50 [27]?
**A.** > 120 µM (not active)

**Q.** What about the EC50 [28] of the same compound?
**A.** 8.95 µM (active)

**Q.** And the IC50 [29]?
**A.** > 20 µM (inactive)

**Q.** What about the AC50 [30] of the same compound?
**A.** 18.8 µM (active)

**Q.** And the IC50 [31]?
**A.** 5.76 µM (inactive)

**Q.** And the IC50 [32]?
**A.** 7.42 µM (inactive)

**Q.** And the IC50 [33]?
**A.** 7.85 µM (inactive)
